The record followed here is US12653830B2, “Substituted imidazoquinoxaline compounds and uses thereof” (Impact Therapeutics (Shanghai), Inc, priority 2019, dated 2026).

Molecules are shown by their SMILES. Read-outs that look alike come from different tables or passages of the source.

One experiment deals with T1, ATM kinase (Homo sapiens, UniProt Q13315).
T1 construct: purchased Eurofins 14-933
As to the kind of experiment: In vitro ATM kinase assay (Cisbio HTRF, p53 substrate). Format: biochemical. Particulars: 30 μM ATP; for inhibition at 0.0001 µM: Conc. 0.1 nM. The procedure: Determination of the Inhibitory Effect In Vitro of the Compound of Example 2 and its Analogues on ATM Using In Vitro ATM Kinase Assay
ATM enzymatic activity was measured using Cisbio's HTRF reagent in a 384-well plate (Greiner, #784075). […] The mixtures were centrifuged at 1000 rpm for 1 minute, and reacted in dark for 30 minutes at room temperature. Then, 5 μL of EDTA termination solution (250 mm) was added to terminate the reaction. After 5 μL of detection mixture (Anti-phospho-p53 (ser15)-K (Cisbio, #61P08KAE, 0.084 ng/μL) and Anti-GST-d2 (Cisbio, #61GSTDLA, 5.00 ng/μL)) was finally added to each well, the mixtures were cultured at room temperature over night, and the fluorescence values at 665 nm and 615 nm were measured on Envision 2104. The final concentration of each reagent of the experiment was as follows: 12.5 mM HEPES (pH8.0), 0.5% glycerol, 0.005% Brij-35, 0.625 mM DTT, 0.0125% BSA, 15 nM p53, 0.25 ng/μL ATM, 30 μM ATP, 2.5 mM Mg(AcO)2, 2.5 mM MnCl2, 62.5 mM EDTA, 0.021 ng/μL Anti-phospho-p53, 1.25 ng/μL Anti-GST-d2.
Relative fluorescence ratio was calculated: Ratio665 nm/615 nm−Ratiobackground, and inhibition rate %=(1−(relative fluorescence ratio of test compound well−relative fluorescence ratio of positive control well)/(relative fluorescence ratio of negative control well−relative fluorescence ratio of positive control well))×100 was calculated. Data were analyzed using GraphPad Prism6.0 and fitted using the curve equation: Y=Bottom+(Top−Bottom)/(1+10^((Log IC50−X)*HillSlope)), and IC50 values were calculated.
Background: TR-FRET usually uses a lanthanide donor and a delayed reading to cut background.

The test system of experiment [1] is human colon cancer cell SW620. As to the kind of experiment: MTT proliferation assay in combination with CPT-11, SW620. Format: cell-based. Particulars: medium containing 205 nM CPT-11, 5 days, read-out: IC50, inhibition of proliferation of SW620 combined with CPT-11. The method, then:
Determination of the Inhibitory Effect of the Compound of Example 2 and its Analogues in Combination with CPT-11 on the Proliferation of Human Colon Cancer Cell SW620 Using MTT Assay
The human colon cancer cells SW620 were cultured in RPMI 1640 medium with 10% FBS and used at about 90% confluence for experiments. The SW620 cells were digested with trypsinase and centrifuged at 800 rpm for 5 minutes. The supernatant was discarded and the cell pellets were resuspended with fresh medium (RPMI 1640+10% FBS). The cells were seeded into 96-well cell culture plates with appropriate cell density and incubated at 37° C. overnight in a 5% CO2 incubator. […] The first concentration was 1 μM or 0.333 μM, the last concentration was DMSO negative control (0 μM). 5 μL of solutions of each concentration was added to 120 μL of medium (a 25 times dilution) and mixed by shaking. The cells were cultured overnight and the culture medium was replaced with 195 μL/well of fresh medium containing 205 nM CPT-11 and 5 μL/well of medium containing the test compound (the final concentration of DMSO was 1%). The culture plates were returned to incubator and cultured at 37° C., 5% CO2 for 5 days. At the day of experiment, medium was discarded and replaced with 100 μL of fresh serum-free DMEM medium containing MTT (0.5 mg/mL), and the culture was continued. 4 hours later, the medium was discarded and replaced with 100 μL/well of DMSO, the plate was shaken for 10 minutes in dark and the absorbance was measured at the wavelengths of 552 and 690 nm using a multi-function plate reader. Data were analyzed by Graph Pad Prism 6.0. The inhibitory effects of compounds on cell proliferation were plotted based on cell viability vs. the logarithm of compound concentration. Cell viability %=(ODcompound−ODbackground)/(ODDMSO−ODbackground)×100.
Table 3 summarizes the inhibitory effect data (IC50) of some compounds combined with CPT-11 on the proliferation of human colon cancer cell SW620.
For orientation: Tetrazolium dyes change colour on reduction, which living cells bring about.

Experiment [2] deals with human breast cancer cell MDA-MB-468. As to the kind of experiment: MTT proliferation assay, MDA-MB-468. Format: cell-based. Particulars: 7 days, single agent, read-out: IC50, inhibition of proliferation of MDA-MB-468. The method, then: Determination of the Inhibitory Effect of the Compound of Example 2 and its Analogues on the Proliferation of Human Breast Cancer Cell MDA-MB-468 Using MTT Assay
The human breast cancer cells MDA-MB-468 were cultured in RPMI 1640 medium with 10% FBS and used at 90% confluence. The MDA-IVB-468 cells were digested with trypsinase and centrifuged at 800 rpm for 5 minutes. The supernatant was discarded and the cell pellets were resuspended with fresh medium and counted. Cells were seeded to 96-well cell culture plates with appropriate cell density and incubated overnight at 37° C., 5% CO2. […] 5 μL of solutions of each concentration was added to 120 μL of medium (diluted by 25 times) and mixed by shaking. The culture medium of cells cultured overnight was discarded and replaced with 195 μL/well of fresh medium (RPMI 1640+5% FBS) and 5 μL/well of diluted medium containing the test compound of corresponding concentrations (the final concentration of DMSO was 1%), and the culture plate was then returned to 5% CO2 incubator at 37° C. for 7 days (on the fourth day, dressing was changed once and culture was continued). On the day of experiment, culture medium was discarded and replaced with 100 μL/well of fresh serum-free DMEM medium containing MTT (0.5 mg/mL), and the culture was continued. After 4 hours, medium was discarded and replaced with 100 μL/well of DMSO, the plates were shaken for 10 minutes in darkness and the absorbance was measured at the wavelengths of 552 and 693 nm using a multi-function plate reader. Graph Pad Prism 6.0 was used to analyze the data. The inhibitory effects of compounds on cell proliferation were plotted based on cell viability vs. the logarithm of compound concentration. Cell viability %=(ODcompound−ODbackground)/(ODDMSO−ODbackground)×100.
Table 4 summarizes the inhibitory effect data (IC50) of some compounds on the proliferation of human breast cancer cell MDA-MB-468.

Where [3] appears, read: Conc. 1 nM, read-out: Inh % (inhibitory effect on ATM kinase activity).
[4] abbreviates: Conc. 10 nM, read-out: Inh % (inhibitory effect on ATM kinase activity).
Where [5] appears, read: Homo sapiens, MDA-MB-468, 168 h.
The mark [6] stands for this setting: read-out: Inh % (inhibitory effect on ATM kinase activity).

T1 sequence (Q13315 whole entry): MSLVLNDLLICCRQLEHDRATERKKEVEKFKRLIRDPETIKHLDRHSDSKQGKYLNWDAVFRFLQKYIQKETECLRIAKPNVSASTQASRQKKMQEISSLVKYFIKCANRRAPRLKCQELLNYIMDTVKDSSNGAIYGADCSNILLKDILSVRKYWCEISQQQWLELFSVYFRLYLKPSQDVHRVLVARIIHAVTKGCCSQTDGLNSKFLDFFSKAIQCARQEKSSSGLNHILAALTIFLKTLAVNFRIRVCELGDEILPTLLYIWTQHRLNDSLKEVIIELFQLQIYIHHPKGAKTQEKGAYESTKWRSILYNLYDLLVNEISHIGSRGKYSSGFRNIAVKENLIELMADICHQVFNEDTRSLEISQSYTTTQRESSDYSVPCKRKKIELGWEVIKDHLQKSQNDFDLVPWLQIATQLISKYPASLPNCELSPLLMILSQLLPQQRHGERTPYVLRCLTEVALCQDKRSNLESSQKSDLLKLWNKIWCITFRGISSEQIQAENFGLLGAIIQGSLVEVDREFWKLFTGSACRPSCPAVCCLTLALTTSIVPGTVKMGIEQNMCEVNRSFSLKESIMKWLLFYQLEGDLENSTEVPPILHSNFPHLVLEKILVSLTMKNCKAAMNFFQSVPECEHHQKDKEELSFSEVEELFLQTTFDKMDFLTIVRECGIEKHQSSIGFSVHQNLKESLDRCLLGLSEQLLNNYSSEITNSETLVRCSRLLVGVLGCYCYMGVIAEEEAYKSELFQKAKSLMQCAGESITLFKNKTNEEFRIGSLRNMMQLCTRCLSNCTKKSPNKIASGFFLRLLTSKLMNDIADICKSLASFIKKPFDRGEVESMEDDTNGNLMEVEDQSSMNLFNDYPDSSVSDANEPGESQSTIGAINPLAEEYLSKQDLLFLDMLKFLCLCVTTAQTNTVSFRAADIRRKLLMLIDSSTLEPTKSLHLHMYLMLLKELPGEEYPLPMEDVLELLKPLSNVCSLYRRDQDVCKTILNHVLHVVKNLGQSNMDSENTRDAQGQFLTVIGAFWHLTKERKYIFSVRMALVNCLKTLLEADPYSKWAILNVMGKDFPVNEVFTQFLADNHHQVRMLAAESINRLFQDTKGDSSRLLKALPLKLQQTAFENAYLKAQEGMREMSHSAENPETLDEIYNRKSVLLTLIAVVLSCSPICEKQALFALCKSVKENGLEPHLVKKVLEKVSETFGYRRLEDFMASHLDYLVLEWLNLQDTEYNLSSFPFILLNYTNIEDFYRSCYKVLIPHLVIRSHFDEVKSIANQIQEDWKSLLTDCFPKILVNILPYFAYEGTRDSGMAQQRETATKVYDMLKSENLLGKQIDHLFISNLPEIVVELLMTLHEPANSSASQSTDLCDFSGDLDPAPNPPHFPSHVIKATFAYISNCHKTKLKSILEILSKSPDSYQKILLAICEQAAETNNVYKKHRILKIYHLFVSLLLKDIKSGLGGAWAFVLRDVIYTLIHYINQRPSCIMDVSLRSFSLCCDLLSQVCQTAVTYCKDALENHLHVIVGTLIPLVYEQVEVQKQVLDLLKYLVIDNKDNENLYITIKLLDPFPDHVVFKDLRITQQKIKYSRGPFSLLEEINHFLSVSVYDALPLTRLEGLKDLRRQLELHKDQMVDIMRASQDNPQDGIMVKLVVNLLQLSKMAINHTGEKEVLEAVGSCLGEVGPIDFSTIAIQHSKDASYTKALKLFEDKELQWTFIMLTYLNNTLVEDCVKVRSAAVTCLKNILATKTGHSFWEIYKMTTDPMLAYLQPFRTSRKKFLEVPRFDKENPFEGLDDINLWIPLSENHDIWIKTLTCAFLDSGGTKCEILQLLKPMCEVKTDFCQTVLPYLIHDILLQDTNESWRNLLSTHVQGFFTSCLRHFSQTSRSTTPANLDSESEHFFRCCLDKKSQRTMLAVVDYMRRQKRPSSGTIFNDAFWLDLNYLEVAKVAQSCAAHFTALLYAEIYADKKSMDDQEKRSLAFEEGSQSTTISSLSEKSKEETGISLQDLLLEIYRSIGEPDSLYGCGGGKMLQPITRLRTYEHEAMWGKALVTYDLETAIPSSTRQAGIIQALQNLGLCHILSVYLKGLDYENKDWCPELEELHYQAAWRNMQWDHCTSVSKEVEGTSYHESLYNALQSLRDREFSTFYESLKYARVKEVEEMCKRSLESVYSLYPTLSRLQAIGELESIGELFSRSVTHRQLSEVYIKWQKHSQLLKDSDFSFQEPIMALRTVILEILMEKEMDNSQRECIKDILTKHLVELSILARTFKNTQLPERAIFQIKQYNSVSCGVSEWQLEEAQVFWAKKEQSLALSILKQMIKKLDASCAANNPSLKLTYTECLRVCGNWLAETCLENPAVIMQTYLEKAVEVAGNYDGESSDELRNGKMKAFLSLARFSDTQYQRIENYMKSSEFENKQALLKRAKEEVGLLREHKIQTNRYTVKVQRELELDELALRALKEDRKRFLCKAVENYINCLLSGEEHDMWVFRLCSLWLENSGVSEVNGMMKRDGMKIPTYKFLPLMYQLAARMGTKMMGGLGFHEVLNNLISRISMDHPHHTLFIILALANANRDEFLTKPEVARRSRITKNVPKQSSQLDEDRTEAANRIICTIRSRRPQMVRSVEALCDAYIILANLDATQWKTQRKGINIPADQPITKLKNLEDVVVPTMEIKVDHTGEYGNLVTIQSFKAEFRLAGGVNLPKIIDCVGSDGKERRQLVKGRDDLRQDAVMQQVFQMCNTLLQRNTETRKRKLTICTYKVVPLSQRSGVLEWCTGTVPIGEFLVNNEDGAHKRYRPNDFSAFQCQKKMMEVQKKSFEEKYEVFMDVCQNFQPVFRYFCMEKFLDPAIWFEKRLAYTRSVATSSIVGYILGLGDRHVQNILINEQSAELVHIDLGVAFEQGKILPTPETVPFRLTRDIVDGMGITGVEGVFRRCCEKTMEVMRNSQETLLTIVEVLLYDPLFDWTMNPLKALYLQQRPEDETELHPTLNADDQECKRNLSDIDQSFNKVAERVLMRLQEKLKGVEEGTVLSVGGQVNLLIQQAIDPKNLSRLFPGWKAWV

Turning to `CN(C)CCCOc1ccc(-c2ccc3ncc4c(c3c2)n(C2CCOCC2)c(=O)n4C)cn1` [AZD0156, reference compound], the “Inh % (inhibitory effect on ATM kinase activity)” value is reported as 90% at ATM kinase (Conc. 1 nM), 95% on ATM kinase (Conc. 10 nM) and 100% on ATM kinase (Conc. 100 nM). In addition, the IC50 in experiment [1] was 9.8 nM; in experiment [2], 9.87 nM.
For `CN(C)CCCOc1ccc(-c2ccc3ncc4cnc(C5CCOCC5)n4c3c2)cc1` [Example 1, N,N-dimethyl-3-(4-(1-(tetrahydro-2H-pyran-4-yl)imidazo[1,5-a]quinoxalin-8-yl)phenoxy)propan-1-amine], the inhibition at 0.001 µM at ATM kinase (setting [3]) came out at 25%. Further, the inhibition at 0.01 µM at ATM kinase (setting [4]) worked out at 71%. Also, the inhibition at 0.1 µM at ATM kinase (Conc. 100 nM, read-out: Inh % (inhibitory effect on ATM kinase activity)) was determined as 96%. The IC50 is 123 nM in experiment [1] and 103 nM in experiment [2] (setting [5]).
Take `Cc1nc(C2CCOCC2)n2c1cnc1ccc(-c3ccc(OCCCN(C)C)nc3)cc12` [Example 2, N,N-dimethyl-3-((5-(3-methyl-1-(tetrahydro-2H-pyran-4-yl)imidazo[1,5-a]quinoxalin-8-yl)pyridin-2-yl)oxy)propan-1-amine]: the inhibition at 0.0001 µM at ATM kinase (setting [6]) turned out to be 45%. For the same compound, the inhibition at 0.001 µM at ATM kinase (setting [3]) worked out at 59%. For the same compound, on ATM kinase (setting [4]), the inhibition at 0.01 µM is 96%. Besides, the IC50 in experiment [1] was 19.2 nM; in experiment [2] (setting [5]), 18.8 nM.
Take `Cc1nc(C2CCOCC2)n2c1cnc1ccc(-c3ccc(OCCCN(C)C)cc3)cc12` [Example 3, N,N-dimethyl-3-(4-(3-methyl-1-(tetrahydro-2H-pyran-4-yl)imidazo[1,5-a]quinoxalin-8-yl)phenoxy)propan-1-amine]: on ATM kinase (setting [4]), the inhibition at 0.01 µM is 98%. Also, the IC50 in experiment [1] was determined as 40.2 nM; in experiment [2] (setting [5]), 29.1 nM.
For `Cc1nc(C2CCOCC2)n2c1cnc1ccc(-c3ccc(OCCCN(C)C)c(F)c3)cc12` [Example 4, N,N-dimethyl-3-(2-fluoro-4-(3-methyl-1-(tetrahydro-2H-pyran-4-yl)imidazo[1,5-a]quinoxalin-8-yl)phenoxy)propan-1-amine] the same measures were 97%, 41.1 nM and 38.9 nM.
With `Cc1nc(C2CCOCC2)n2c1cnc1ccc(-c3ccc(OCCCN(C)C)c(C(F)(F)F)c3)cc12` [Example 5, N,N-dimethyl-3-(4-(3-methyl-1-(tetrahydro-2H-pyran-4-yl)imidazo[1,5-a]quinoxalin-8-yl)-2-(trifluoromethyl)phenoxy)propan-1-amine], the inhibition at 0.0001 µM on ATM kinase (setting [6]) was 47%. Also, the inhibition at 0.001 µM at ATM kinase (setting [3]) is 97%. Further, the inhibition at 0.01 µM on ATM kinase (setting [4]) was determined as 99%. Also, the values for the IC50 in experiment [1] and in experiment [2] (setting [5]) were 19.5 nM and 21.9 nM, respectively.
Consider `Cc1nc(N2C[C@@H](C)O[C@@H](C)C2)n2c1cnc1ccc(-c3ccc(OCCc4c[nH]cn4)nc3)cc12` [Example 35, (2S,6R)-4-(8-(6-(2-(1H-imidazol-4-yl)ethoxy)pyridin-3-yl)-3-methylimidazo[1,5-a]quinoxalin-1-yl)-2,6-dimethylmorpholine], for which the results for the IC50 in experiment [1] and in experiment [2] (setting [5]) were 564 nM and 419 nM, respectively.
The corresponding values for `CC(C)c1nc(N2C[C@@H](C)O[C@@H](C)C2)n2c1cnc1ccc(-c3ccc(OCCCN(C)C)nc3)cc12` [Example 42, 3-((5-(1-((2S,6R)-2,6-dimethylmorpholino)-3-isopropylimidazo[1,5-a]quinoxalin-8-yl)pyridin-2-yl)oxy)-N,N-dimethylpropan-1-amine] are 852 nM and 533 nM.
For `C[C@@H]1CN(c2ncc3cnc4ccc(-c5ccc(N6CCC(N(C)C)CC6)nc5)cc4n23)C[C@H](C)O1` [Example 45, 1-(5-(1-((2S,6R)-2,6-dimethylmorpholino)imidazo[1,5-a]quinoxalin-8-yl)pyridin-2-yl)-N,N-dimethylpiperidin-4-amine] the same measures were 20.9 nM and 18.8 nM.
The corresponding values for `Cc1nc(N2C[C@@H](C)O[C@@H](C)C2)n2c1cnc1ccc(-c3ccc(N(C)CCCN(C)C)nc3)cc12` [Example 47, N^1-(5-(1-((2S,6R)-2,6-dimethylmorpholino)-3-methylimidazo[1,5-a]quinoxalin-8-yl)pyridin-2-yl)-N^1,N^3,N^3-trimethylpropane-1,3-diamine] are 17.9 nM and 126 nM.
Turning to `Cc1nc(N2C[C@@H](C)O[C@@H](C)C2)n2c1cnc1ccc(-c3ccc(N4CCC(N5CCC5)CC4)nc3)cc12` [Example 52, (2S,6R)-4-(8-(6-(4-(azetidin-1-yl)piperidin-1-yl)pyridin-3-yl)-3-methylimidazo[1,5-a]quinoxalin-1-yl)-2,6-dimethylmorpholine], the IC50 in experiment [1] was 5.5 nM; in experiment [2] (setting [5]) it was 6.1 nM.
The corresponding values for `Cc1nc(N2C[C@@H](C)O[C@@H](C)C2)n2c1cnc1ccc(-c3ccc(CCN4CCN(C)CC4)nc3)cc12` [Example 60, (2S,6R)-2,6-dimethyl-4-(3-methyl-8-(6-(2-(4-methylpiperazin-1-yl)ethyl)pyridin-3-yl)imidazo[1,5-a]quinoxalin-1-yl)morpholine] are over 1000 nM and 832 nM.
As for `Cc1nc(N2C[C@@H](C)O[C@@H](C)C2)n2c1cnc1ccc(-c3ccc(OCCCN(C)C)c(F)c3)cc12` [Example 61, 3-(4-(1-((2S,6R)-2,6-dimethylmorpholino)-3-methylimidazo[1,5-a]quinoxalin-8-yl)-2-fluorophenoxy)-N,N-dimethylpropan-1-amine], the IC50 was found to be 21.7 nM in experiment [1] and 20.8 nM in experiment [2] (setting [5]).
Regarding `Cc1nc(N2C[C@@H](C)O[C@@H](C)C2)n2c1cnc1ccc(-c3ccc(OCCCN(C)C)c(Cl)c3)cc12` [Example 62, 3-(2-chloro-4-(1-((2S,6R)-2,6-dimethylmorpholino)-3-methylimidazo[1,5-a]quinoxalin-8-yl)phenoxy)-N,N-dimethylpropan-1-amine], the IC50 turned out to be 43 nM in experiment [1] and 34 nM in experiment [2] (setting [5]).
